# Tests used:
# mouse bone marrow = experiment: Hematopoietic colonies from wild-type mouse bone marrow treated ex vivo; assay type: cell-based; details: 1 μM ex vivo on ice for 2 hours
# Source text: Treated marrow is again then plated into methylcellulose for counting of hematopoietic colonies.
# [1] = system: PGE2 in colon, bone marrow, liver, lung; experiment: PGE2 in mouse tissues after IP injection; assay type: in vivo
# bone marrow = experiment: Homing of CFSE labeled bone marrow cells to marrow of irradiated recipient mice; assay type: in vivo, mouse; details: for effect on SW033291 induced increase of homing: co-administered with SW033291 10 mg/kg IP
# Procedure: Drugs are administered following radiation, following the transplant, and again at 8 hours after the transplant.
# A549 cells = experiment: PGE2 levels in medium of IL1-beta stimulated A549 cells; assay type: cell-based
# cell culture = experiment: Toxicity: concentration needed to decrease cell numbers in a cell culture assay; assay type: cell-based
# Procedure: Time to inhibition refers to the time needed to inhibit the generation of NADH by 15-PGDH from the moment with drug is added into the reaction mix. Delta Tm refers to the shift in melting temperature of recombinant 15-PGDH in the presence of drug (with cofactor NADH also present). Concentration of Full Cell Line Reporter Induction refers to the concentration of drug that needs to be added to reporter cell line to achieve maximal induction of the 15-PGDH-luciferase gene fusion reporter cassette, as measured by luciferase assays. Hepatocyte stability refers to the half-life of compound in the presence of hepatocytes in culture. Toxicity refers to the concentration of compound needed to decrease cell numbers in a cell culture assay.
# [2] = system: 15-PGDH-luciferase fusion reporter in V9m, LS174T and V503 colon cancer cell lines; experiment: 15-PGDH-luciferase fusion reporter induction in colon cancer cell lines; assay type: cell-based; details: for luciferase activity of 15-PGDH luciferase fusion cells: V9m, LS174T, V503, relative to DMSO
# 15-PGDH protein = experiment: Western blot of 15-PGDH protein levels in treated cell lines; assay type: cell-based; details: […] compound for 48 hours
# recombinant 15-PGDH [3] = target: T1, recombinant 15-PGDH (Homo sapiens (Human), UniProt P15428); experiment: Thermal melt shift of recombinant 15-PGDH protein (SYPRO Orange); assay type: binding
# [4] = system: 15-PGDH-luciferase fusion protein reporter in Vaco-9M (V9M) cell line; experiment: 15-PGDH-luciferase fusion reporter induction in Vaco-9M (V9M) cells; assay type: cell-based
# Procedure: Some residual activity is seen for isomer B when added at 3.2 μM concentration. The small residual activity of isomer A may be due to possible 3% contamination with some residual isomer B.
# recombinant 15-PGDH [5] = target: T1, recombinant 15-PGDH; experiment: Inhibition of enzymatic activity of recombinant 15-PGDH in an in vitro assay; assay type: biochemical; details: FIG. 97
# [6] = Immediate toxicity after IP injection into mice; assay type: in vivo; details: injected IP into mice at 50 mg/kg body weight
# [7] = Chemical stability in aqueous solutions; assay type: physicochemical; details: over broad pH range
# cell lines = experiment: PGE2 production by cell lines; assay type: cell-based; details: read-out: EC50 for increase of PGE2 production by cell lines
# [8] = Stability when incubated with liver extracts; assay type: in vitro ADME; details: incubated with mouse, rat and human liver extracts
# T1 sequence (P15428 whole entry, the tested form may be a part): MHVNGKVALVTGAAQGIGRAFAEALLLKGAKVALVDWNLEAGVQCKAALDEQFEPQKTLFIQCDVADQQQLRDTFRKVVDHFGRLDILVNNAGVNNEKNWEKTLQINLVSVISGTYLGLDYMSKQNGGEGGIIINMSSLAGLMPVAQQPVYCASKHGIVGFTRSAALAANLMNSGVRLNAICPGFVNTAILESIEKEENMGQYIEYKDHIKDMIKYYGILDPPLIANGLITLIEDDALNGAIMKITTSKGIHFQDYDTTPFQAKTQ
compound,measurement,setting,value
"CCCCC(C)(C)[C@H](O)/C=C/[C@H]1[C@H](O)CC(=O)[C@@H]1C/C=C\CCCC(=O)O [dmPGE2, 16,16-dimethyl PGE2]",increase in number of bone marrow derived colonies relative to SW033291,mouse bone marrow,slightly greater increase
(+) SW209415,"peak PGE2 levels in lung, liver, colon and bone marrow","[1]; IP 0.5, 1.5 or 5 mg/kg, peak at 3 hours",approximately double those of vehicle control
COc1ccc2cc(OCC3(C(=O)O)CN(C(=O)c4ccc(F)cc4)C3)ccc2c1 [PF-04418948],effect on SW033291 induced increase of homing,bone marrow,partially blocked
CCCC[S+]([O-])c1sc2nc(-c3cccs3)ccc2c1N (stereo not shown) [SW206980],highest PGE2 level achieved in medium,"A549 cells; IL-1β 16 h, compound 8 h",2500 pg/mL
same,Toxicity,cell culture,>7.5 µM
"CCCC[S+]([O-])c1sc2nc(-c3nccs3)cc(-c3cnc(C)n3C)c2c1N (stereo not shown) [SW209415, 2-(butylsulfinyl)-4-(1,2-dimethyl-1H-imidazol-5-yl)-6-(thiazol-2-yl)thieno[2,3-b]pyridin-3-amine]",increase of homed cells in recipient mouse bone marrow,"bone marrow; 10 mg/kg IP, FACS 16 hours post-transplant",approximately 2.5 fold
O=C(c1ccc2nc(-c3ccccc3)c(-c3ccccc3)nc2c1)N1CCCCC1 [SW145753],"PGE2 level in medium, reflecting 15-PGDH activity","A549 cells; IL1-beta 23 hours, compound added for last 5 hours",clear inhibition of 15-PGDH activity
same,luciferase activity of 15-PGDH luciferase fusion cells,[2],increase luciferase activity
same,levels of 15-PGDH protein (western blot),15-PGDH protein,increase levels of 15-PGDH protein
COc1ccc(OC)c(N(CC(=O)Nc2cccnc2)S(=O)(=O)c2ccccc2)c1 [SW054384],luciferase activity of 15-PGDH luciferase fusion cells,[2],increase luciferase activity
same,direct binding to 15-PGDH by melting temperature shift,recombinant 15-PGDH [3]; 10 μM and 100 μM cofactor NAD or NADH,cannot be demonstrated to bind 15-PGDH
same,levels of 15-PGDH protein (western blot),15-PGDH protein,increase levels of 15-PGDH protein
COc1ccc2c(c1)c(CC(=O)O)c(C)n2C(=O)c1ccc(Cl)cc1 [indomethacin],effect on SW033291 induced increase of homing,bone marrow,near completely blocked
"CCCCc1nn(-c2ccccc2C(F)(F)F)c(=O)n1Cc1ccc(-c2ccccc2S(=O)(=O)NC(=O)c2sccc2C)cc1 [L-161,982]",effect on SW033291 induced increase of homing,bone marrow,near completely blocked
CCCC[S+]([O-])c1sc2nc(-c3nccs3)ccc2c1N (stereo not shown) [SW206992],concentration at which maximal PGE2 effect attained,"A549 cells; IL-1β 16 h, compound 8 h",2.5 µM
same,highest PGE2 level achieved in medium,"A549 cells; IL-1β 16 h, compound 8 h",2100 pg/mL
same,Concentration for Full Cell Line Reporter Induction,[2]; concentration to achieve maximal induction of 15-PGDH-luciferase reporter,>1 µM
same,Toxicity,cell culture,>7.5 µM
CCCC[S@](C)(O)c1sc2nc(-c3cccs3)cc(-c3ccccc3)c2c1N [SW033291 isomer B],concentration giving full reporter activity,[4],0.1 µM
same,melting temperature of 15-PGDH,"recombinant 15-PGDH [3]; Differential Scanning Fluorimetry, DMSO control 50.5° C.",68 °C
same,IC50 lower than the parent racemic mixture,recombinant 15-PGDH [5],40%
CCCC[S+]([O-])c1sc2nc(-c3nccs3)cc(-c3cnc(C)n3C)c2c1N (stereo not shown) [formula (XIII)],immediate toxicity over 24 hours,[6],no immediate toxicity
same,chemical stability in aqueous solutions,[7],chemically stable in aqueous solutions over broad pH range
same,"PGE2 levels in colon, lung, liver and bone marrow",[1]; IP dose of 10 mg/kg body weight,elevates PGE2 levels
same,EC50,cell lines,~20 nM
same,chemical stability with liver extracts,[8],"chemically stable when incubated with mouse, rat and human liver extracts"
same,homing of hematopoietic stem cells following bone marrow transplantation,"bone marrow; mouse, 10 mg/kg body weight",increases homing of hematopoietic stem cells
"CCCCC[C@H](O)/C=C/[C@H]1[C@H](O)CC(=O)[C@@H]1C/C=C\CCCC(=O)O [PGE2, prostaglandin E2]",increase in number of bone marrow derived colonies relative to SW033291,mouse bone marrow,lesser increase

# — patent US10869871B2, “Compositions and methods of modulating short-chain dehydrogenase activity” (CASE WESTERN RESERVE UNIVERSITY, priority 2013, dated 2020)
